In this assay the test system is predicted CTL epitopes from Tie-2. Put plainly: Ex-vivo IFNγ ELISPOT with predicted CTL epitopes from Tie-2. Type of assay: in vivo, HHDII mice. The settings on record: for Peptide-specific IFNγ response, highest mean value: peptide in IFA. Here is the method: (C) and (D) HHDII mice were either untreated (c) or treated with 400 μg PC61mAb i.p., (d). 4 days later, all mice were immunized with the Tie2 C200HFc DNA construct. DNA immunizations were repeated at 7 day intervals for a total of 3 immunisations. 6 days after the final immunisation, splenocytes were harvested and restimulated in an ex-vivo IFNγ ELISPOT assay with 1 μg/ml of each of the predicted CTL epitopes from Tie-2. Bars indicate the mean of triplicate values for each individual mouse, normalized to background controls, with error bars representing the standard deviation from the mean.
(E) and (F), HHDII mice were either untreated (e) (n=3) or treated (f) (n=2) with 400 μg PC61 antibody i.p. After 4 days, all mice were immunised with 100 μg Z12 peptide and 100 μg Z48 peptide, mixed 1:1 in IFA (s.c.). Repeat peptide immunisations were administered 7 days after the first peptide immunisation. Splenocytes were harvested 14 days after the final immunisation and restimulated with 1 μg/ml Z12 peptide (black bars) or media alone (open bars) in an IFNγ ELIspot assay. Bars indicate the mean of triplicate values with error bars representing the standard deviation from the mean.
(G) HHDII mice were immunised with 100 μg Z12 peptide mixed 1:1 in IFA (s.c.). […] Splenocytes were harvested 7 days after the final immunisation and analysed for the presence of epitope specific responses to increasing peptide concentration in IFNγ elispot assay. Responses are measured from individual mice as spots/million splenocytes and avidity is assigned as the concentration which gives 50% maximal effector function.
(H) HHDII mice were immunised with ImmunoBody DNA construc DCIB71 via gene gun at days 0, 7 and 14. Splenocytes were harvested 7 days after the final immunisation and analysed for the presence of epitope specific responses to increasing peptide concentration in IFNγ elispot assay. Responses are measured from individual mice as spots/million splenocytes and avidity is assigned as the concentration which gives 50% maximal effector function. […]

The values below come from patent US8742088B2, “Nucleic acids encoding antibodies or portions thereof comprising a heterologous T cell epitope and their use in modulating T cell responses” (priority 2007, dated 2014).

Regarding ILINSLPLV [Z282, I L I N S L P L V], the “Peptide-specific IFNγ response, highest mean value” by setting is: (CD25 depleted animals, mouse 2) 137 SFC/million cells; (non-depleted animals, mouse 3) 215 SFC/million cells. Under “three weekly immunisations, peptide titration”, the “z12 epitope specific responses (frequency and avidity)” value was “low frequency and avidity epitope specific responses”.
